From patent US20040014215A1, “Synchronised arabidopsis cell suspensions and uses thereof” (priority 2000, published 2004)

Tests used:
[1] = system: Arabidopsis cell suspension MM2d; experiment: Aphidicolin block/release of MM2d: mitotic index and labelling index; assay type: cell-based, Arabidopsis thaliana
Description: This experiment was carried out as described for Example 1, except that cell line MM2d was used, and the culture conditions throughout the experiment were as described for MM2d in Example 1.
Synchronisation was performed as described in Example 2A, with the exception that before adding aphidicolin, 20 ml of the weekly subcultured cell suspension was transferred into 100 ml fresh MSS-medium in each of 2 separate flasks and cultivated under conditions as described in Example 1 for MM2d. […] Samples were taken at the same time frame for flow cytometry to follow cell cycle transition.
Samples were analysed by flow cytometry to determine the percentage of cells being in G1-, S- and G2M phase. The mitotic index (MI) and labelling index (LI) were independently determined (as described in Example 2A). Results are shown below in table II and in FIG. 1.
Table II. Aphidicolin block/release of Arabidopsis cell suspension MM2d. Data are shown from analysis of samples obtained in the experiment described in Example 2B.

[2] = system: Arabidopsis cell suspension culture MM1; experiment: Aphidicolin block/release of MM1: mitotic index (DAPI) and labelling index (BrdU); assay type: cell-based, Arabidopsis thaliana
Description: Arabidopsis cell suspension culture MM1 (DSM 13563) was used for synchronisation experiments. The suspension culture was maintained by sub-culturing weekly 10 ml into 200 ml of fresh MSS-medium (MS-salt, 3% sucrose, 0.5 mg/l NAA, 0.05 mg/l kinetin) which is cultured in 500 ml narrow neck Erlenmeyer flasks, of which the opening is covered with double layer of aluminium foil and loosely covered with Saran wrap and which are placed on a GYROTORY® Shaker (New Brunswick Scientific). The cell suspension culture was grown under continuous light conditions (24 hrs a day); Philips lamps were used with the specification TLD HF 50W/840; light level is in average 1300 Lux and the cell suspension culture is rotated at 120 rpm at a temperature varying between 23-25° C. To arrest cells reversibly in late G1/early S-phase, cells were blocked with aphidicolin according to Nagata et al. 1992 (with slight modifications), 40 ml of an early stationary phase cell suspension culture was subcultured into 200 ml MSS-medium, 4.16 μg/ml aphidicolin was added to block cells at the end of G1/early S-phase, and the culture was incubated at 23° C., 120 rpm in the conditions as described above for MM1, for a period of 21.5 hrs. To remove aphidicolin, cells were washed through a nylon mesh (mesh size 47 μm) with 11 MSS-medium by vigorously shaking and resuspended in MSS-medium. The cells were vigorously shaken, for a washing time of about 14 min, and then centrifuged at 150Orpm for 1 min (387 rcf) with the brake switched off.

[3] = range seen on blocking the cells with aphidicolin
[4] = this experiment (Example 2A), after release from aphidicolin block

Structure (SMILES): C[C@@]1(CO)[C@H](O)CC[C@@]2(C)[C@H]1CC[C@H]1C[C@@H]3C[C@@]12CC[C@]3(O)CO [aphidicolin]
- Labelling Index (%) ([1]; 1 h after aphidicolin removal): 19.41%
- Mitotic index (%) ([1]; 1 h after aphidicolin removal): 0%
- Labelling Index (%) ([1]; 2 h after aphidicolin removal): 35.47%
- Mitotic index (%) ([1]; 2 h after aphidicolin removal): 0.2%
- Labelling Index (%) ([1]; 3 h after aphidicolin removal): 69.46%
- Mitotic index (%) ([1]; 3 h after aphidicolin removal): 0.4%
- Labelling Index (%) ([1]; 4 h after aphidicolin removal): 66%
- Mitotic index (%) ([1]; 4 h after aphidicolin removal): 0.6%
- Labelling Index (%) ([1]; 5 h after aphidicolin removal): 39.22%
- Mitotic index (%) ([1]; 5 h after aphidicolin removal): 1.21%
- Labelling Index (%) ([1]; 6 h after aphidicolin removal): 16.05%
- Mitotic index (%) ([1]; 6 h after aphidicolin removal): 0.92%
- Labelling Index (%) ([1]; 7 h after aphidicolin removal): 13.27%
- Mitotic index (%) ([1]; 7 h after aphidicolin removal): 0.71%
- Labelling Index (%) ([1]; 8 h after aphidicolin removal): 9.6%
- Mitotic index (%) ([1]; 8 h after aphidicolin removal): 1.87%
- Labelling Index (%) ([1]; 9 h after aphidicolin removal): 8.23%
- Mitotic index (%) ([1]; 9 h after aphidicolin removal): 2.41%
- Labelling Index (%) ([1]; 10 h after aphidicolin removal): 9.23%
- Mitotic index (%) ([1]; 10 h after aphidicolin removal): 6.09%
- Labelling Index (%) ([1]; 11 h after aphidicolin removal): 4.6%
- Mitotic index (%) ([1]; 11 h after aphidicolin removal): 6.7%
- Labelling Index (%) ([1]; 12 h after aphidicolin removal): 1.46%
- Mitotic index (%) ([1]; 12 h after aphidicolin removal): 10.72%
- Labelling Index (%) ([1]; 13 h after aphidicolin removal): 2.78%
- Mitotic index (%) ([1]; 13 h after aphidicolin removal): 11.06%
- Labelling Index (%) ([1]; 14 h after aphidicolin removal): 3.61%
- Mitotic index (%) ([1]; 14 h after aphidicolin removal): 10.99%
- Labelling Index (%) ([1]; 15 h after aphidicolin removal): 2.73%
- Mitotic index (%) ([1]; 15 h after aphidicolin removal): 6.74%
- Labelling Index (%) ([1]; 16 h after aphidicolin removal): 2.28%
- Mitotic index (%) ([1]; 16 h after aphidicolin removal): 5.79%
- Labelling Index (%) ([1]; 17 h after aphidicolin removal): 1.96%
- Mitotic index (%) ([1]; 17 h after aphidicolin removal): 4.49%
- Labelling Index (%) ([1]; 18 h after aphidicolin removal): 3.3%
- Mitotic index (%) ([1]; 18 h after aphidicolin removal): 4.01%
- Labelling Index (%) ([1]; 19 h after aphidicolin removal): 7.62%
- Mitotic index (%) ([1]; 19 h after aphidicolin removal): 2.38%
- Labelling Index (%) ([2]; 1 h after aphidicolin removal): 23.21%
- Mitotic index (%) ([2]; 1 h after aphidicolin removal): 0%
- Labelling Index (%) ([2]; 2 h after aphidicolin removal): 41.3%
- Mitotic index (%) ([2]; 2 h after aphidicolin removal): 0.5%
- Labelling Index (%) ([2]; 3 h after aphidicolin removal): 65.06%
- Mitotic index (%) ([2]; 3 h after aphidicolin removal): 0.58%
- Labelling Index (%) ([2]; 4 h after aphidicolin removal): 64.13%
- Mitotic index (%) ([2]; 4 h after aphidicolin removal): 0.5%
- Labelling Index (%) ([2]; 5 h after aphidicolin removal): 50%
- Mitotic index (%) ([2]; 5 h after aphidicolin removal): 0.68%
- Labelling Index (%) ([2]; 6 h after aphidicolin removal): 18.43%
- Mitotic index (%) ([2]; 6 h after aphidicolin removal): 1.88%
- Labelling Index (%) ([2]; 7 h after aphidicolin removal): 13.67%
- Mitotic index (%) ([2]; 7 h after aphidicolin removal): 2.37%
- Labelling Index (%) ([2]; 8 h after aphidicolin removal): 10.32%
- Mitotic index (%) ([2]; 8 h after aphidicolin removal): 2.04%
- Labelling Index (%) ([2]; 9 h after aphidicolin removal): 8.1%
- Mitotic index (%) ([2]; 9 h after aphidicolin removal): 2.63%
- Labelling Index (%) ([2]; 10 h after aphidicolin removal): 7.86%
- Mitotic index (%) ([2]; 10 h after aphidicolin removal): 2.84%
- Labelling Index (%) ([2]; 11 h after aphidicolin removal): 7.65%
- Mitotic index (%) ([2]; 11 h after aphidicolin removal): 5.06%
- Labelling Index (%) ([2]; 12 h after aphidicolin removal): 6.8%
- Mitotic index (%) ([2]; 12 h after aphidicolin removal): 7.96%
- Labelling Index (%) ([2]; 13 h after aphidicolin removal): 3.08%
- Mitotic index (%) ([2]; 13 h after aphidicolin removal): 11.67%
- Labelling Index (%) ([2]; 14 h after aphidicolin removal): 5.05%
- Mitotic index (%) ([2]; 14 h after aphidicolin removal): 9.03%
- Labelling Index (%) ([2]; 15 h after aphidicolin removal): 3.68%
- Mitotic index (%) ([2]; 15 h after aphidicolin removal): 7.86%
- Labelling Index (%) ([2]; 16 h after aphidicolin removal): 4.09%
- Mitotic index (%) ([2]; 16 h after aphidicolin removal): 5%
- Labelling Index (%) ([2]; 17 h after aphidicolin removal): 9.46%
- Mitotic index (%) ([2]; 17 h after aphidicolin removal): 2.96%
- Labelling Index (%) ([2]; 18 h after aphidicolin removal): 12.96%
- Mitotic index (%) ([2]; 18 h after aphidicolin removal): 3.24%
- Labelling Index (%) ([2]; 19 h after aphidicolin removal): 10.91%
- Mitotic index (%) ([2]; 19 h after aphidicolin removal): 2.06%
- MI peak [2, 3]: 10 to 15%
- labelling index [2, 3]: 50-65%
- LI peak [2, 4]: 65%
- MI peak [2, 4]: 12%
